Measurements: article PMC5669199, “CM352 Reduces Brain Damage and Improves Functional Recovery in a Rat Model of Intracerebral Hemorrhage” (Journal of the American Heart Association: Cardiovascular …, 2017)

Experiments:
[1] = test system: MMP‐10; set-up: method as in PMID 25686022; conditions: previously reported; read-out: MMP Inhibitory Activity (IC50), MMP‐10; cited from earlier work
[2] = test system: MMP‐3; set-up: method as in PMID 25686022; conditions: previously reported; read-out: MMP Inhibitory Activity (IC50), MMP‐3; cited from earlier work
[3] = molecular target: T1, MMP‐7 (Homo sapiens, UniProt P09237); assay: MMP enzyme activity assay; type: biochemical
T1 construct: GenScript (contract testing)
T1 sequence (P09237 95-267): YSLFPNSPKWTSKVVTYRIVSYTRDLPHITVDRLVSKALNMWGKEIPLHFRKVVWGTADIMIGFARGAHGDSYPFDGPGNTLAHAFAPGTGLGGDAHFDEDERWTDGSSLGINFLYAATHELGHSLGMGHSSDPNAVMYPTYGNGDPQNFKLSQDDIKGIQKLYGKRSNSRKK
Protocol: Protease stock solutions (10 mmol/L) were diluted with assay buffer to make final test solutions containing no more than 2.0% DMSO. The samples were dispensed into plates; substrate was added and read with PHERAstar PLUS (BMG Labtech, Ortenberg, Germany) plate reader.

[4] = test system: collagenase‐induced mouse model of ICH; set-up: method as in PMID 15800021; conditions: 100 mg/kg intraperitoneally for 48 hours (not with 1 mg/kg); cited from earlier work
[5] = molecular target: T2, MMP‐12 (Homo sapiens, UniProt P39900); assay: MMP enzyme activity assay; type: biochemical; conditions: read-out: MMP Inhibitory Activity (IC50), MMP‐12
T2 construct: GenScript (contract testing)
Protocol: […]. Protease stock solutions (10 mmol/L) were diluted with assay buffer to make final test solutions containing no more than 2.0% DMSO. The samples were dispensed into plates; substrate was added and read with PHERAstar PLUS (BMG Labtech, Ortenberg, Germany) plate reader.

[6] = test system: mouse model of warfarin‐associated ICH; set-up: method as in PMID 21127298; conditions: cited from earlier work

T2 sequence (P39900 106-470, species assumed): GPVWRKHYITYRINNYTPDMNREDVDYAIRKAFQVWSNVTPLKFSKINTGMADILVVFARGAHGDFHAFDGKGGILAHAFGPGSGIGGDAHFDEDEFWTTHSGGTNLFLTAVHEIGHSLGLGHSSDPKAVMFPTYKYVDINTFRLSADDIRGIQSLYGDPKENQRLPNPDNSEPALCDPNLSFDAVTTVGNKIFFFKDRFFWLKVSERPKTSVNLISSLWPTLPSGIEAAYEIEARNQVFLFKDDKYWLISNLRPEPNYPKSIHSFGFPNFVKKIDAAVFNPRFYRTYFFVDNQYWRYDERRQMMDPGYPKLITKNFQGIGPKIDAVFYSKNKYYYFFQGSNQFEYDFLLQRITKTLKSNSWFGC

| Compound | IC50 [1] [nM] | IC50 [2] [nM] | IC50 [3] [nM] | lesion volume and neurological outcome [4] | IC50 [5] [nM] | effect on edema [6] |
| --- | --- | --- | --- | --- | --- | --- |
| CNC(=O)[C@H](Cc1c[nH]c2ccccc12)NC(=O)[C@@H](CC(=O)NO)CC(C)C [GM6001] | […] | 20.7 | 9 | decrease in lesion volume and improved neurological outcome | 1.2 |  |
| NC[C@H]1CC[C@H](C(=O)O)CC1 [TXA, tranexamic acid] |  |  |  |  |  | exacerbates edema |
